Earlier results on one compound are cited in patent publication EP3569066A1, “ECOLOGICAL FORMULA HAVING MULTIPLE ANTIMICROBIAL ACTION (BACTERICIDAL, FUNGICIDAL AND ANTI-VIRAL) BASED ON COMMERCIAL MOLECULES” (Arias Dipre, Juan José, priority 2017, dated 2018).

Each structure is given as a SMILES string. Like-named read-outs stand apart in the source and are kept apart here.

For this data set the following is noted: 0.1N solution.

Consider `O=C(O)CC(O)(CC(=O)O)C(=O)O` [Ingredient 1, 2-HYDROXY-1, 2, 3 TRI[…]], for which the pH is on record as 2.2. Further, the pH (listed as E) is 2.2 (0.1 N).
